# Experiments:
# Test in all cases: relative viability (nuclei count vs DMSO), 5 days (fraction); higher = more cells survive
# Carboplatin + Pemetrexed = compound: C1CC(C1)(C(=O)O)C(=O)O.[NH2-].[NH2-].[Pt+2] [Carboplatin] + Nc1nc2[nH]cc(CCc3ccc(C(=O)N[C@@H](CCC(=O)O)C(=O)O)cc3)c2c(=O)[nH]1 [Pemetrexed] (partner 0.2 µM)
# Outline: (§1)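 Lung cancer cell lines were seeded in 1536-well plates and dosed by pin tool the next day, with either a single drug or a fixed anchor-drug dose combined with five library-drug doses (not always all listed) spaced in √10 steps. Five days later, one step fixed the cells and stained their nuclei (final 0.05% Triton X-100, 1% formaldehyde, 1 ug/ml Hoechst), and nuclei were counted on 4× images. Relative viability is the nuclei count in treated wells divided by the count in vehicle wells, and each value is the median of duplicate plates.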
# MLN4924 + Alpelisib = compound: NS(=O)(=O)OC[C@@H]1C[C@@H](n2ccc3c(N[C@H]4CCc5ccccc54)ncnc32)C[C@@H]1O [MLN4924] + Cc1nc(NC(=O)N2CCC[C@H]2C(N)=O)sc1-c1ccnc(C(C)(C)C(F)(F)F)c1 [Alpelisib] (partner 2 µM)
# Outline: as §1
# GSK126 + Foretinib = compound: CC[C@H](C)N1C=C(C2=C(C=C(C=C21)C3=CN=C(C=C3)N4CCNCC4)C(=O)NCC5=C(C=C(NC5=O)C)C)C [GSK126] + COc1cc2c(Oc3ccc(NC(=O)C4(C(=O)Nc5ccc(F)cc5)CC4)cc3F)ccnc2cc1OCCCN1CCOCC1 [Foretinib] (partner 0.25 µM)
# Outline: as §1
# GSK126 + Pictilisib = compound: CC[C@H](C)N1C=C(C2=C(C=C(C=C21)C3=CN=C(C=C3)N4CCNCC4)C(=O)NCC5=C(C=C(NC5=O)C)C)C [GSK126] + CS(=O)(=O)N1CCN(Cc2cc3nc(-c4cccc5[nH]ncc45)nc(N4CCOCC4)c3s2)CC1 [Pictilisib] (partner 1 µM)
# Outline: as §1
Cell Line,relative viability (Carboplatin + Pemetrexed; first compound 0.08 µM),relative viability (Carboplatin + Pemetrexed; first compound 0.253 µM),relative viability (Carboplatin + Pemetrexed; first compound 0.8 µM),relative viability (Carboplatin + Pemetrexed; first compound 2.53 µM),relative viability (Carboplatin + Pemetrexed; first compound 8 µM),relative viability (MLN4924 + Alpelisib; first compound 0.04 µM),relative viability (MLN4924 + Alpelisib; first compound 0.1265 µM),relative viability (MLN4924 + Alpelisib; first compound 0.4 µM),relative viability (MLN4924 + Alpelisib; first compound 1.265 µM),relative viability (MLN4924 + Alpelisib; first compound 4 µM),relative viability (GSK126 + Foretinib; first compound 0.08 µM),relative viability (GSK126 + Foretinib; first compound 0.253 µM),relative viability (GSK126 + Foretinib; first compound 0.8 µM),relative viability (GSK126 + Foretinib; first compound 2.53 µM),relative viability (GSK126 + Foretinib; first compound 8 µM),relative viability (GSK126 + Pictilisib; first compound 0.08 µM),relative viability (GSK126 + Pictilisib; first compound 0.253 µM),relative viability (GSK126 + Pictilisib; first compound 0.8 µM),relative viability (GSK126 + Pictilisib; first compound 2.53 µM),relative viability (GSK126 + Pictilisib; first compound 8 µM)
201T,0.362,0.343,0.344,0.36,0.327,1.24,1.11,1.17,0.344,0.392,1.17,1.1,1.11,1.37,1.33,0.686,0.8,0.738,0.691,0.728
A549,,,,,,0.657,0.748,0.61,0.05,0.05,1.01,0.974,0.922,0.954,0.904,0.506,0.479,0.485,0.46,0.53
A-427,1.03,1.01,0.942,0.897,1.05,0.728,0.334,0.28,0.183,0.2,1.31,0.999,1.07,1.1,1.13,0.855,0.786,0.701,0.799,0.641
ABC-1,,,,,,1.18,0.95,0.352,0.264,0.262,1.31,1.15,0.955,1.14,0.959,0.972,1.03,0.732,0.858,0.687
BEN,1.02,0.931,0.772,0.759,0.738,0.868,0.458,0.372,0.151,0.147,0.712,0.767,0.575,0.683,0.607,0.706,0.569,0.582,0.541,0.438
CAL-12T,1.21,1.34,1.13,1.12,1.14,1.09,1.18,0.39,0.529,0.191,1.13,1.12,1.09,1,1.25,0.466,0.499,0.357,0.596,0.343
COR-L23,0.188,0.202,0.192,0.193,0.198,0.722,0.689,0.561,0.159,0.116,1.06,0.931,0.921,0.932,1.01,0.946,0.735,0.817,0.839,0.768
COR-L 105,1.13,1.27,1.18,0.854,0.615,0.836,0.702,0.413,0.257,0.31,1.23,1.08,0.989,0.871,0.99,0.435,0.406,0.347,0.389,0.459
Calu-6,,,,,,1.09,1.07,0.388,0.14,0.148,1.02,0.934,0.896,0.829,0.978,1.03,0.987,0.913,1.07,0.967
ChaGo-K-1,0.262,0.261,0.253,0.249,0.269,,,,,,1.07,1.06,0.878,1,0.835,0.831,0.656,0.746,0.722,0.649
EBC-1,,,,,,0.78,0.768,0.276,0.132,0.151,0.117,0.113,0.0893,0.102,0.0935,0.42,0.321,0.41,0.321,0.25
EKVX,0.38,0.342,0.402,0.296,0.329,0.926,0.748,0.519,0.164,0.144,0.755,0.881,0.782,0.876,0.903,0.417,0.474,0.408,0.518,0.353
EMC-BAC-2,0.426,0.42,0.435,0.418,0.414,0.806,0.326,0.194,0.15,0.14,1.07,0.964,0.706,0.98,1.03,0.516,0.549,0.496,0.53,0.592
EPLC-272H,0.368,0.309,0.359,0.301,0.326,1.05,0.957,0.131,0.136,0.195,0.809,0.789,0.736,0.742,0.754,0.35,0.337,0.26,0.329,0.3
H3255,0.589,0.531,0.58,0.529,0.563,0.694,0.548,0.265,0.175,0.242,1.07,0.887,0.894,0.987,0.983,0.472,0.512,0.492,0.466,0.441
